Results taken from patent US11723911B2, “Treatment of demyelinating diseases” (M ET P PHARMA AG, priority 2018, dated 2023).

Key:
[1] = system: experimental autoimmune encephalomyelitis (EAE) in castrated male mice; assay: Experimental autoimmune encephalomyelitis (EAE): clinical score, electron microscopy and immunostaining of lumbar spinal cord; type: in vivo, mouse; settings: for density of myelinated axons in spinal cord (electron microscopy) / g-ratio (axon diameter/total outer diameter of the myelinated fiber) / percentage of abnormal axons among total axons: 30 days post EAE induction; for g-ratio (axon diameter/total outer diameter of the myelinated fiber): small calibre axons (≤2.5 μm), n=3; for total density of activated Iba1+ microglia in the spinal cord: FIG. 5E; for EAE clinical score: between days 21 and 30, testosterone intranasal 0.2 mg/day, SAG oral gavage every other day; for area occupied by Arg1+ cells as percentage of the total area of the lesion: lumbar spinal cord, FIG. 5F; for percentage of abnormal axons among total axons / GFAP-positive area as percentage of the lesion area: spinal cord; for GFAP-positive area as percentage of the lesion area: FIG. 5G
Experimental: Electron microscopy. […] The g ratio (the ratio between the axon diameter and fiber diameter corresponding to myelin sheath+axon diameter) was estimated by measuring the minimum and maximum axon diameter and fiber diameter for each axon using ImageJ software. At least 300 randomly chosen myelinated axons were evaluated for each animal.
The pathology was induced according to the instructions from the provider (Hooke Laboratories, MA, USA). Briefly, mice were immunized by subcutaneous injection of an emulsion of MOG35-55 peptide (myelin oligodendrocyte glycoprotein[…] fragment 35-55) in complete Freund's adjuvant (at two sites using 0.1 ml of the pre-conditioned mixture for each site) followed on the same day (Day 0) by a first intraperitoneal injection of pertussis toxin in PBS and by a second one on Day 1 (250 ng/dose). The mice were scored blindly once a day starting at Day 7 post-immunization until Day 30 according to the following scale: 0.0=no obvious changes in motor function; 0.5=tip of tail is limp; 1.0=limp tail; 1.5=limp tail and hind leg inhibition; 2.0=limp tail and weakness of hind legs or signs of head tilting; 2.5=limp tail and dragging of hind legs or signs of head tilting; 3.0=limp tail and complete paralysis of hind legs or limb tail with paralysis of one front and one hind leg; 3.5=limp tail and complete paralysis of hind legs and animal unable to right itself when placed on its side; 4.0=limb tail, complete hind leg and partial front leg paralysis with minimal moving and feeding; 4.5=complete hind and partial front leg paralysis with no movement around the cage with the animal appearing no more alert; 5.0=extreme paralysis which requires euthanasia of the animal.
The active agents were administered at the onset of clinical symptoms until Day 30 after immunization. Testosterone was administered via the intranasal route (0.2 mg/day in a volume of 2.5 μl in each nostril) in an oleogel composition as described above. SAG was administered orally by gavage ([…] of mouse weight) every other day.
The animals were sacrificed by ketamine overdose. The spinal cord/vertebrae was removed and lumbar spinal cord/vertebrae samples were treated according to the requirements of the various histological procedures. For immunostaining, the spinal cord/vertebrae fragments were post-fixed in PFA 4% for 24 hrs. The spinal cords were removed from the vertebral column, processed in an ethanol/xylene bath and embedded in paraffin blocks. 7-μm sections were then obtained using a microtome (Leica) and allowed to dry on glass slides overnight at 37° C. For electron microscopy, the spinal cord/vertebrae fragments were post-fixed in a mixture of PFA 2% and glutaraldehyde 2% for 5 days. The spinal cords were removed from the vertebral column, post-fixed in cacodylate-buffered 1% osmium tetroxide for 1 hour at 4° C. and in 2% uranyl acetate for 1 hour at room temperature, and then dehydrated by serial dilutions of ethanol and embedded in epoxy resin. Ultrathin sections were contrasted with a saturated uranyl acetate solution.

[2] = system: primary mixed glial cells; assay: Proliferation of Olig2+ cells (BrdU incorporation) in primary mixed glial cell cultures; type: cell-based, mouse; settings: for Olig2+ BrdU+ proliferating cells as percentage of total Olig2+ cells: SAG 1 μM or testosterone 1 μM from 5 to 12 DIV, BrdU 2 hours before end of culture
Experimental: Primary glial cell cultures were prepared from the dorsal telencephalon of newborn (P1) male mice as previously described in Feutz et al, J. Neurocytol, “Isolation and characterization of defective jimpy oligodendrocytes in culture”, 24:865-877 ([…]). Briefly, meninges are removed, and the dorsal telencephalons are microdissected and mechanically dissociated in DMEM supplemented with 10% calf serum, penicillin (50 U/ml), and streptomycin (50 μg/ml) (Thermo Fisher Scientific, France). The cell suspension is plated in a 24-well plates containing 0.5 ml of cultured medium coated with 30 μg/ml poly-1-lysine (Sigma-Aldrich). Cultures containing astrocytes, oligodendrocytes (OLs) and microglia cells are then incubated in 5% CO2 and 95% air in a humidified atmosphere (90%) at 37° C.
[…]. The supplemented culture medium was replaced every other day with a fresh solution. At 12 DIV, the cells were fixed for 20 minutes with 4% paraformaldehyde (PFA) in PBS, then permeabilized with 0.025% Triton X-100 for 10 minutes and blocked for 1 hour with Sea Block buffer (Thermo Fisher Scientific).
The cells were immunostained for BrdU and Olig2. For immunostaining, after overnight incubation with the primary antibodies at 4° C. followed by 3 washes in PBS, the cells were incubated with the appropriate secondary antibodies for 2 hours before washing with PBS and the addition of Fluoromount (Vector, clinisciences, France) as the mounting medium. Images were acquired with immunofluorescence microscopy as described above. (Data not shown).

[3] = system: LPC-induced demyelination in young male adult mice; assay: LPC-induced demyelination of the corpus callosum with or without SAG (immunostaining at 2 and 10 dpl); type: in vivo, mouse
Experimental: Image Acquisition and Analysis. Images were taken using the microscope analyzing system Axiovision 4.2 (Carl Zeiss, Inc.), the confocal Zeiss LSM 510-Meta Confocor 2 and the scanner imager with the CaseViewer software. Analyses were performed with ImageJ software. At least 10 sections per mouse were analyzed and data are the mean of 3-5 mice. For the brains derived from the lysolecithin (LPC)-injected animals, immunofluorescent-positive cells or areas were determined in one every other 5 sections throughout the whole demyelinated lesion per mouse and averaged for each animal. The lesion surface was determined by measuring the area of the nuclear densification (correlated with myelin loss visualized by MBP or PLP staining) one every other 5 slices through the whole demyelinated lesion.
The effect of Smo activation by the Smo agonist SAG on demyelination was investigated as follows. LPC-induced demyelination was performed as previously described in Ferent et al., J. Neuroscience 33:1759-1772 (2013), in the absence or presence of SAG, in young male adult mice. Briefly, demyelinating lesions were induced unilaterally by stereotaxic injections of 2 μl of a solution containing LPC 1% (Sigma-Aldrich) along with SAG (0.2 μM) or the corresponding vehicle, into the right corpus callosum by using a Hamilton syringe specifically dedicated for neural surgery (NH BIO, France). The injection was performed at the following coordinates (to the bregma): anteroposterior (AP)+1 mm, lateral+1 mm, dorsoventral (DV) −2.2 mm. The brain was removed from deeply anesthetized mice and transcardially perfused with 4% PFA. The tissue was post-fixed for 4 hours in a fresh 4% PFA solution before being cryopreserved in 30% sucrose, frozen in liquid nitrogen and cryostat sectioned (14 μm). 4-5 mice were used per time point for each treatment condition. Mice were sacrificed at 2 and 10 days post-lesion (dpl), and prepared for immunostaining of PDGFRα, Olig2/APC, Ki67/PDGFRα, GFAP, and Iba1/Arg1. Images of immunostaining were acquired using immunofluorescence microscopy (data not shown), and the results were quantified by evaluating number of cells per surface unit for PDGFRα (FIG. 4A), Olig2/APC (FIG. 4B), Ki67/PDGFRα (FIG. 4C), GFAP (FIG. 4D), Iba1/Arg1 (FIG. 4E)

[4] = system: primary mixed glial cells derived from Plp-EGP mice; assay: Differentiation of PLP+ oligodendroglial cells co-expressing MBP in primary mixed glial cells from Plp-EGFP mice; type: cell-based, mouse; settings: for fold increase in the percentage of PLP+ cells co-expressing MBP compared to control / percentage of PLP+ cells co-expressing MBP: SANT 0.1 μM, testosterone 1 μM, alone or together; for percentage of PLP+ cells co-expressing MBP: 12 DIV
Experimental: Briefly, meninges are removed, and the dorsal telencephalons are microdissected and mechanically dissociated in DMEM supplemented with 10% calf serum, penicillin (50 U/ml), and streptomycin (50 μg/ml) (Thermo Fisher Scientific, France). The cell suspension is plated in a 24-well plates containing 0.5 ml of cultured medium coated with 30 μg/ml poly-1-lysine (Sigma-Aldrich).
The supplemented culture medium was replaced every other day with a fresh solution.
To analyse differentiation of myelin producing cells, the primary mixed glial cells were derived from Plp-EGP mice and cultured as described above. Detection of PLP+ cells co-expressing MBP was performed by using primary mixed glial cells derived from Plp-EGP mice and immunostaining for Mbp. Immunofluorescence images were acquired as described above and the number of PLP^+ cells co-expressing MBP were evaluated.

[5] = system: postnatal day 10 male pups; assay: Developmental myelination in male pups treated subcutaneously from P3 to P10 (MBP/NF200 immunostaining); type: in vivo, mouse; settings: s.c. every other day from P3, SANT 20 μg/g, testosterone 20 μg
[6] = system: LPC-induced demyelination model, castrated male mice; assay: Phosphorylated STAT3-expressing astrocytes in castrated male mice demyelinated by lysolecithin; type: in vivo, mouse
Text: […]. The latter is important for both remyelination and astrocyte reactivity, which is similar to activated microglia involved in local inflammation. […].

| SMILES | density of myelinated axons in spinal cord (electron microscopy) [1] | g-ratio (axon diameter/total outer diameter of the myelinated fiber) [1] | total density of activated Iba1+ microglia in the spinal cord [1] | EAE clinical score [1] | area occupied by Arg1+ cells as percentage of the total area of the lesion [1] | percentage of abnormal axons among total axons [1] | GFAP-positive area as percentage of the lesion area [1] | Olig2+ BrdU+ proliferating cells as percentage of total Olig2+ cells [2] | myelinated area: area occupied by MBP as percentage of total area occupied by NF200 axons [5] | fold increase in the percentage of PLP+ cells co-expressing MBP compared to control [4] | percentage of PLP+ cells co-expressing MBP [4] | further results |
| --- | --- | --- | --- | --- | --- | --- | --- | --- | --- | --- | --- | --- |
| CN[C@H]1CC[C@H](N(Cc2cccc(-c3ccncc3)c2)C(=O)c2sc3ccccc3c2Cl)CC1 [SAG, 3-Chloro-N-[trans-4-(methylamino)cyclohexyl]-N-[[3-(4-pyridinyl)phenyl]methyl]benzo[b]thiophene-2-carboxamide] | much higher density of myelinated axons | 0.737±0.005 | Neither testosterone nor SAG was found to significantly modify | ~1.0 | 10.9±1.7% | 14.0±1.7% | 25.1±2.2% | 8.4±0.5% |  |  |  | Claudin 5-positive area as percentage of the lesion area ([1]; blood brain barrier tight junction marker, FIG. 5H): 2.35±0.27%; Iba1+ microglia versus control ([3]; 2 dpl): unaffected; area occupied by GFAP+ astrocytes versus control ([3]; 2 dpl): tended to be decreased; density of Arg1+ pro-regenerative microglia ([3]; 2 dpl): 103±7 cells per surface unit; density of proliferating Ki67+ PDGFRα+ OPCs ([3]; 2 dpl): 39±2 cells per surface unit; fold enhancement of the density of Arg1+ microglia ([3]; 2 dpl): 2 fold; fold increase of the proportion of Iba1 microglia co-expressing Arg1 ([3]; 2 dpl): two-fold; proportion of Iba1 microglia co-expressing Arg1 ([3]; 2 dpl): 58±5%; total number of PDGFRα+ OPCs versus control ([3]; 2 dpl): remained unchanged; density of Olig2+ APC+ mature OLs ([3]; 10 dpl): 83±7 cells per surface unit; fold increase in PDGFRα+ cells compared to controls ([3]; 10 dpl): 2 fold; proportion of mature OLs versus control ([3]; 10 dpl): not significantly different; PDGFRα+ cells (OPCs) per unit surface ([3]; 10 dpl, SAG 0.2 μM injected with LPC): 121±11 cells per surface unit; Effect on Mbp expression when used alone ([4]; SAG 0.1 μM or 1 μM alone): did not modify Mbp expression; Effect on testosterone-mediated OL differentiation ([4]; SAG 0.1 μM or 1 μM with testosterone 1 μM): slight but significant decrease |
| Cc1nn(-c2ccccc2)c(C)c1C=NN1CCN(Cc2ccccc2)CC1 [SANT-1, (4-Benzyl-piperazin-1-yl)-(3,5-dimethyl-1-phenyl-1H-pyrazol-4-ylmethylene)-amine] |  |  |  |  |  |  |  |  | 75.1±4.3% | 4 fold | 12.4±0.8% | Effect on testosterone-induced increase in Olig2+ BrdU+ cells ([2]; SANT-1 0.1 μM with testosterone 1 μM): blocks testosterone-induced increase |
| N#Cc1ccc(C2CCCc3cncn32)cc1 (stereo not shown) [fadrozole] |  |  |  |  |  |  |  |  |  |  |  | effect on the testosterone-induced increase of phosphorylated STAT3-expressing astrocytes ([6]; fadrozole per oral route 260 μg/kg with intranasal testosterone, 7 days): inhibited |
| C[C@]12CC[C@H]3[C@@H](CCC4=CC(=O)CC[C@@]43C)[C@@H]1CC[C@@H]2O [testosterone] | much higher density of myelinated axons | 0.773±0.003 | Neither testosterone nor SAG was found to significantly modify | ~2.0 | 6.8±1.4% | 15.8±1.4% | 38.8±1.8% | 3.8±0.6% | 78.0±4.1% | 4 fold | 11.7±1.5% | number of GFAP+ astrocytes expressing phosphorylated STAT3 ([6]; 7 days post-lesion, intranasal testosterone 0.2 mg/day or intranasal estradiol 0.05 mg/day): increased |
